Experimental data: patent US6767890B1, “Peptides having anti-cancer and anti-inflammatory activity” (priority 1998, dated 2004)

Target: Ca++/Calmodulin Dep. PK II
Assay: Ca++/Calmodulin Dep. PK II enzyme assay
Format: biochemical, rat
Conditions: historical value; read-out: ^1IC, (IC50 of reference compound)
Method: The peptide was further screened in vitro in a variety of enzyme and biochemical assays. Methods employed were adapted from the scientific literature to maximize reliability and reproducibility. The primary literature reference for each assay is listed in Table 11 opposite the results for each assay.
Results presented in Table 10, “Results,” are the average of duplicate determinations, unless otherwise noted.
Reference compounds were tested concurrently at 5 concentrations as an integral part of each assay to ensure the validity of the results obtained.
Enzyme assays were performed under conditions described in Table 8, “Experimental Conditions.”. The commercial suppliers and catalog numbers of substrates employed in this study are given in Table 7, “Material Sources.” The name, commercial source, and catalog numbers of concurrent reference compounds (controls) employed in this study are given in Table 9, “Reference Compound Data.” The reaction catalyzed by each enzyme is listed in Table 8, “Experimental Conditions.”
Biochemical assay results are presented in Table 10, as the percent inhibition of specific binding or activity, and unless noted are the average of duplicate tubes tested at each concentration.

For `CN1CCN(CCCN2c3ccccc3Sc3ccc(C(F)(F)F)cc32)CC1` [Trifluoperazine, reference compound], the IC50 was 27 µM.
